# Laboratory results as given in PubChem BioAssay (NCI).
#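 Where inhibition never reached the appropriate level, the endpoint shown equals the highest concentration tested. Otherwise, values were interpolated linearly from a five-concentration, 48-hour dose response in 96-well plates. GI50: concentration for 50% inhibition of growth. At the TGI there is no net growth.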
# Tests used:
# Experiment in all cases: DTP human tumour cell line panel, 48 h
# [1] = tested on: HS 578T breast
# [2] = tested on: SK-MEL-5 melanoma
# [3] = tested on: OVCAR-3 ovarian
# [4] = tested on: RXF 393 renal
# [5] = tested on: NCI/ADR-RES ovarian
# [6] = tested on: PC-3 prostate
# [7] = tested on: UACC-257 melanoma
Compound,GI50 [1],TGI [1],GI50 [2],TGI [2],GI50 [3],TGI [3],GI50 [4],TGI [4],GI50 [5],TGI [5],GI50 [6],TGI [6],GI50 [7],TGI [7]
Cc1[nH]c2ccccc2c1CCCO,54.9 µM,> 100 µM,> 100 µM,> 100 µM,> 100 µM,> 100 µM,> 100 µM,> 100 µM,> 100 µM,> 100 µM,> 100 µM,> 100 µM,> 100 µM,> 100 µM
Cc1cc2c(cc1Cl)SC1=NN(C)C(C)N1S2(=O)=O (centres undefined),> 100 µM,> 100 µM,> 100 µM,> 100 µM,> 100 µM,> 100 µM,,,> 100 µM,> 100 µM,> 100 µM,> 100 µM,> 100 µM,> 100 µM
CC1(C)C2CCC13C(=O)C1OC3(C2)C2C(=O)c3ccccc3C(=O)C12 (centres undefined),> 100 µM,> 100 µM,,,,,> 100 µM,> 100 µM,12.1 µM,> 100 µM,77.2 µM,> 100 µM,> 100 µM,> 100 µM
O=C(C/C(=N/O)C(=O)NC1=C(Cl)C(=O)c2ccccc2C1=O)CC(c1ccccc1)c1c(O)c2ccccc2oc1=O (centres undefined),,50.6 µM,,2.38 µM,,15.2 µM,,35 µM,,> 100 µM,,> 100 µM,,> 100 µM
CC(C)CCCC(C)[C@H]1CCC2[C@@H]3CCC4Cc5nc6c(nc5C[C@]4(C)C3CC[C@@]21C)CC1CC[C@@H]2C(CC[C@@]3(C)C2CC[C@@H]3C(C)CCCC(C)C)[C@@]1(C)C6 (some centres undefined),,> 100 µM,,> 100 µM,,> 100 µM,,> 100 µM,,> 100 µM,,> 100 µM,,> 100 µM
COC1CC(O[C@H]2CC[C@@]3(C)[C@H](CC[C@@H]4[C@@H]3CC[C@]3(C)[C@@H](C5=CC(=O)OC5)[C@@H](OC(C)=O)C[C@]43O)C2)OC(C)C1O (some centres undefined),< 0.01 µM,< 0.0145 µM,< 0.01 µM,< 0.01 µM,< 0.01 µM,< 0.01 µM,< 0.01 µM,< 0.01 µM,< 0.01 µM,< 0.01 µM,< 0.01 µM,< 0.01 µM,< 0.01 µM,< 0.01 µM
COc1ccc(C/C(C)=C(/c2ccc(OCCN3CCCCC3)cc2)c2ccc(OC(=O)NCc3ccccc3)cc2)cc1,,,0.421 µM,0.774 µM,0.413 µM,0.762 µM,0.435 µM,0.876 µM,0.443 µM,0.893 µM,0.398 µM,0.778 µM,0.472 µM,0.917 µM
C=CCN=C(N/N=C/c1ccc([N+](=O)[O-])o1)NS(=O)(=O)c1cc(C(=O)Nc2ccc(Cl)cc2)c(Cl)cc1SC,> 41.9 µM,> 100 µM,2.14 µM,4.82 µM,1.57 µM,14.1 µM,,,> 100 µM,> 100 µM,2.13 µM,> 100 µM,4.28 µM,> 59.9 µM
CN(C)CCN1C(=O)c2c(c3c4ccccc4n4c3c3c2c2ccccc2n3C2CC(O)C(O)C4(C)O2)C1=O (centres undefined),2.34 µM,12 µM,1.58 µM,7.14 µM,2.27 µM,11.1 µM,1.89 µM,8.27 µM,8.2 µM,23.3 µM,2.05 µM,9.48 µM,3.32 µM,9.79 µM
O=C1NNC2(C(=O)N1)c1ccccc1-c1ccccc12,,> 10 µM,,> 10 µM,,,,> 10 µM,,> 10 µM,,> 10 µM,,> 10 µM
COc1cc(OC)c2nc(C)c3c(c2c1)SCC3,,57.7 µM,,49.8 µM,,36.4 µM,,54.1 µM,,65.5 µM,,53.1 µM,,78.3 µM
Cc1cc(NCCCN(C)C)c2ccc3c(ccc4c(NCCCN(C)C)cc(C)nc43)c2n1,0.197 µM,0.667 µM,0.275 µM,0.945 µM,0.191 µM,0.444 µM,,,0.583 µM,3.38 µM,0.199 µM,0.609 µM,0.199 µM,0.499 µM
C/C(O)=C(/C=N/C(=S)Nc1ccc(S(N)(=O)=O)cc1)C(=O)Nc1ccccc1C,,> 100 µM,,> 100 µM,,> 100 µM,,> 100 µM,,> 100 µM,,> 100 µM,,> 100 µM
COc1ccc(CCN2CC=Cn3c2nc2ccccc2c3=O)cc1,0.0329 µM,77.4 µM,0.0265 µM,0.154 µM,0.0214 µM,0.0605 µM,0.0309 µM,> 100 µM,0.0179 µM,0.77 µM,0.0308 µM,> 100 µM,20.5 µM,> 100 µM
COc1cc(C(=O)c2c(-c3ccccc3)oc3c(OC)cccc23)cc(OC)c1OC,0.0984 µM,> 24.1 µM,0.157 µM,0.733 µM,0.0346 µM,0.363 µM,0.0414 µM,4.69 µM,0.0409 µM,,0.0557 µM,> 100 µM,28.3 µM,> 100 µM
NCCCC[C@@H]1NC(=O)[C@H]2CCCN2C(=O)[C@H](Cc2ccccc2)CNC(=O)[C@H](Cc2ccccc2)NC1=O,> 37.5 µM,> 37.5 µM,> 37.5 µM,> 37.5 µM,> 37.5 µM,> 37.5 µM,> 37.5 µM,> 37.5 µM,> 37.5 µM,> 37.5 µM,> 37.5 µM,> 37.5 µM,> 37.5 µM,> 37.5 µM
COc1cc2c(cc1OC)[C@H](C)N1CCc3cc(OC)c(OC)cc3[C@@H]1C2,,> 100 µM,,> 100 µM,,> 100 µM,,,,> 100 µM,,> 100 µM,,> 100 µM
CCCCOC(=O)N1CCN(/[N+]([O-])=N/Oc2ccc([N+](=O)[O-])cc2[N+](=O)[O-])CC1,20.9 µM,> 100 µM,4.91 µM,19.8 µM,1.68 µM,4.12 µM,17.6 µM,40.4 µM,3.43 µM,> 100 µM,14 µM,30.8 µM,13.4 µM,29 µM
COc1cc(OC)c(C/C=C/c2ccccc2)cc1O,,47.3 µM,,29.3 µM,,31.1 µM,,,,31.4 µM,,35.6 µM,,55.6 µM
CC1CCC/C1=C(/I)C(=O)c1ccccc1 (centres undefined),,> 100 µM,,69.5 µM,,,,> 100 µM,,> 100 µM,,> 100 µM,,> 100 µM
Cc1cc([N+](=O)[O-])c(NS(=O)(=O)c2cccc(C(=O)O)c2)cc1-c1cccnc1,,,> 100 µM,> 100 µM,> 100 µM,> 100 µM,> 100 µM,> 100 µM,> 100 µM,> 100 µM,> 100 µM,> 100 µM,> 100 µM,> 100 µM
